How the values were obtained:
[1] = Pharmacokinetic analysis of AMXT 1501 salt forms, single oral tablet dose; format: in vivo, beagle dogs
Source text: Following dose administration all the animals had serial blood collections. Table 18 provides pharmacokinetic data obtained using the various salt forms of AMXT 1501 following single PO dosing to dogs. In Table 18, Group 1 received the free base form of AMXT 1501, Group 2 received the dicholate salt of AMXT 1501, Group 3 received the phosphate salt form of AMXT 1501, and Group 4 received the dicaprate salt form of AMXT 1501. […] In Table 18, SD refers to standard deviation and CV % refers to coefficient of variability.

[2] = cited from earlier work
[3] = cited from earlier work; remark: listed apart in the source
[4] = 3 h intravenous infusions; cited from earlier work
[5] = single PO dose 16.0 mg/kg (2 x 80 mg tablets), plasma AMXT 1501
[6] = single PO dose 16.0 mg/kg (2 x 80 mg tablets), plasma AMXT 1501, 16 mg/kg
[7] = single PO dose 16.0 mg/kg, plasma AMXT 1501, 16 mg/kg
[8] = single PO dose 16.0 mg/kg, t=24 hours, plasma AMXT 1501, 16 mg/kg

CCCCCCCCCCCCCCCC(=O)NCCCC[C@@H](N)C(=O)NCCCNCCCCNCCCN [AMXT 1501 free base]
Tmax Median [1, 5]: 6.00 h
Tmax Min. [1, 5]: 6.00 h
Cmax Max. [1, 6]: 468 ng/mL
Cmax Mean [1, 6]: 250 ng/mL
Cmax Median [1, 6]: 250 ng/mL
Cmax Min. [1, 6]: 31.3 ng/mL
Tmax Max. [1, 6]: 12.0 h
Tmax Mean [1, 6]: 8.00 h
t1/2 Max. [1, 7]: 9.76 h
t1/2 Mean [1, 7]: 9.76 h
t1/2 Median [1, 7]: 9.76 h
t1/2 Min. [1, 7]: 9.76 h
AUC0-t Max. [1, 8]: 8450 ng·h/mL
AUC0-t Mean [1, 8]: 4710 ng·h/mL
AUC0-t Median [1, 8]: 5330 ng·h/mL
AUC0-t Min. [1, 8]: 363 ng·h/mL
inter-animal consistency of plasma AMXT 1501 levels ([1]; single oral delivery, FIGS. 5A-5D): variable drug levels

CCNCCCCNCCCCNCCCCNCC [DEHSpm, N1,N14-diethylhomospermine]
drug in plasma ([2]; 2-4 hrs. post-injection): not observed
objective response ([2]; solid tumor patients): None of the 15 patients

c1cc(CN2CCCNCCNCCCNCC2)ccc1CN1CCCNCCNCCCNCC1 [Mozobil]
clearance by ([3]; subcutaneous 40-360 μg/kg, healthy volunteers): ≤ 10 h
Plasma half-life ([3]; subcutaneous): 3 h

N=C(N)NCCCCCCC(=O)NC(O)C(=O)NCCCCNCCCN (stereo not shown) [deoxyspergualin]
half-life [4]: 1.8 h

Reference: patent publication US12364709B2, “Bioavailable poly amines” (AMINEX THERAPEUTICS, INC., priority 2016, dated 2025)
